The nature of this series: clinical. The following applies: female, human, in vivo, sc, 20 ug.

This is an account of results in patent US12377044B2, “Method and device for transdermal delivery of parathyroid hormone using a microprojection array” (Panther Life Sciences Corporation, priority 2010, dated 2025).

Procedure: The microprojection array described herein was used to administer transdermally hPTH (1-34) to healthy human subjects. As a comparator, hPTH (1-34) was also administered subcutaneously to a healthy group of human subjects.
In this study, a microprojection array was prepared as detailed in Example 9 and inserted into an applicator-array assembly to form a transdermal delivery system, as described in Example 10. […] The delivery system was designed to deliver a systemic dose of hPTH (1-34) across the stratum corneum barrier layer of the skin upon activation of the applicator to deploy an array of microstructures causing the array of microstructures to penetrate the stratum corneum. In this study, two dose levels were administered via the transdermal delivery system, 32 μg hPTH (1-34) and 64 μg hPTH (1-34) (32 μg hPTH (1-34)×2). Subjects received these doses by applying the transdermal microneedle delivery system MicroCor® device containing the indicated amount of hPTH in the distal tips of the microneedles in the array to an abdominal site, and leaving the device in place for five (5) minutes. The comparator treatment (the commercial hPTH product known as Forteo®) was subcutaneously administered via injection into the abdominal wall at a dose of 20 μg. Blood samples were drawn at designated times and analyzed for hPTH concentration. […]

Compound `CC[C@H](C)[C@H](NC(=O)[C@H](CCC(=O)O)NC(=O)[C@H](CO)NC(=O)[C@@H](NC(=O)[C@@H](N)CO)C(C)C)C(=O)N[C@@H](CCC(N)=O)C(=O)N[C@@H](CC(C)C)C(=O)N[C@@H](CCSC)C(=O)N[C@@H](Cc1cnc[nH]1)C(=O)N[C@@H](CC(N)=O)C(=O)N[C@@H](CC(C)C)C(=O)NCC(=O)N[C@@H](CCCCN)C(=O)N[C@@H](Cc1cnc[nH]1)C(=O)N[C@@H](CC(C)C)C(=O)N[C@@H](CC(N)=O)C(=O)N[C@@H](CO)C(=O)N[C@@H](CCSC)C(=O)N[C@@H](CCC(=O)O)C(=O)N[C@@H](CCCN=C(N)N)C(=O)N[C@H](C(=O)N[C@@H](CCC(=O)O)C(=O)N[C@@H](Cc1c[nH]c2ccccc12)C(=O)N[C@@H](CC(C)C)C(=O)N[C@@H](CCCN=C(N)N)C(=O)N[C@@H](CCCCN)C(=O)N[C@@H](CCCCN)C(=O)N[C@@H](CC(C)C)C(=O)N[C@@H](CCC(N)=O)C(=O)N[C@@H](CC(=O)O)C(=O)N[C@H](C(=O)N[C@@H](Cc1cnc[nH]1)C(=O)N[C@@H](CC(N)=O)C(=O)N[C@@H](Cc1ccccc1)C(=O)O)C(C)C)C(C)C` [hPTH (1-34), human Parathyroid hormone (1-34)] had a half-life of 52 min.

The half-life is the time in which the quantity being followed falls by half.
